From US9408871B2, “Methods for inhibiting complement activation and uses thereof” (THE UNIVERSITY OF BRITISH COLUMBIA, priority 2013, dated 2016)

What was measured:
[1] = tested on: choroidal endothelial cells (CEC; RF/6A); assay: protection against H2O2 oxidative stress, microscopy; type: cell-based; conditions: 100 μM to 1000 μM, H2O2 24 hours
Experimental: (§1) Using cultured cell lines as models of choroidal endothelial cells (CEC; RF/6A)^73 and retinal pigmented epithelial cells (ARPE-19)^74, we tested whether polyphosphate (polyP) could protect against stress-induced alterations in cell survival and deposition of terminal complement activation products (C5b-9).
(§2) CEC (FIG. 21) or ARPE-19 (FIG. 22) cells were grown to ˜80% confluence in DMEM+10% serum, and then incubated with varying concentration of hydrogen peroxide (H2O2) for 24 hours in the presence of varying concentrations of polyP1000.

[2] = tested on: retinal pigmented epithelial cells (ARPE-19); assay: as above; type: cell-based, human; conditions: 100 μM to 1000 μM, H2O2 24 hours
Experimental: as §1, §2

## O=P(O)(O)O [P1, Orthophosphate]
[1]
  protective effect against H2O2 oxidative stress, CEC: No effect was observed
[2]
  protective effect against H2O2 oxidative stress, ARPE-19: No effect was observed
